Measured values reported in ChEMBL document CHEMBL1146157, “Synthesis and SAR of 2-(4-fluorophenyl)-3-pyrimidin-4-ylimidazo[1,2-a]pyridine derivatives as anticoccidial agents” (Bioorg Med Chem Lett, 2006).

Tests used:
Eimeria acervulina [1] = assay: Antiparasitic activity against Eimeria acervulina in chicken at 25 ppm in feed assessed as percent reduction in oocyst; format: functional; design: scale not given: the % may be the effect or the level left
Eimeria tenella [2] = assay: Antiparasitic activity against Eimeria tenella in chicken at 25 ppm in feed assessed as percent reduction in oocyst; format: functional; design: scale not given: the % may be the effect or the level left
[3] = molecular target: cGMP-dependent protein kinase (Eimeria tenella, UniProt Q8MMZ8); assay: Inhibition of Eimeria tenella PKG
Eimeria tenella [4] = assay: Antiparasitic activity against Eimeria tenella in chicken at 50 ppm in feed assessed as percent reduction in oocyst; format: functional; design: scale not given: the % may be the effect or the level left
Eimeria acervulina [5] = assay: Antiparasitic activity against Eimeria acervulina in chicken at 50 ppm in feed assessed as percent reduction in oocyst; format: functional; design: scale not given: the % may be the effect or the level left

Chain of cGMP-dependent protein kinase (Q8MMZ8 whole entry): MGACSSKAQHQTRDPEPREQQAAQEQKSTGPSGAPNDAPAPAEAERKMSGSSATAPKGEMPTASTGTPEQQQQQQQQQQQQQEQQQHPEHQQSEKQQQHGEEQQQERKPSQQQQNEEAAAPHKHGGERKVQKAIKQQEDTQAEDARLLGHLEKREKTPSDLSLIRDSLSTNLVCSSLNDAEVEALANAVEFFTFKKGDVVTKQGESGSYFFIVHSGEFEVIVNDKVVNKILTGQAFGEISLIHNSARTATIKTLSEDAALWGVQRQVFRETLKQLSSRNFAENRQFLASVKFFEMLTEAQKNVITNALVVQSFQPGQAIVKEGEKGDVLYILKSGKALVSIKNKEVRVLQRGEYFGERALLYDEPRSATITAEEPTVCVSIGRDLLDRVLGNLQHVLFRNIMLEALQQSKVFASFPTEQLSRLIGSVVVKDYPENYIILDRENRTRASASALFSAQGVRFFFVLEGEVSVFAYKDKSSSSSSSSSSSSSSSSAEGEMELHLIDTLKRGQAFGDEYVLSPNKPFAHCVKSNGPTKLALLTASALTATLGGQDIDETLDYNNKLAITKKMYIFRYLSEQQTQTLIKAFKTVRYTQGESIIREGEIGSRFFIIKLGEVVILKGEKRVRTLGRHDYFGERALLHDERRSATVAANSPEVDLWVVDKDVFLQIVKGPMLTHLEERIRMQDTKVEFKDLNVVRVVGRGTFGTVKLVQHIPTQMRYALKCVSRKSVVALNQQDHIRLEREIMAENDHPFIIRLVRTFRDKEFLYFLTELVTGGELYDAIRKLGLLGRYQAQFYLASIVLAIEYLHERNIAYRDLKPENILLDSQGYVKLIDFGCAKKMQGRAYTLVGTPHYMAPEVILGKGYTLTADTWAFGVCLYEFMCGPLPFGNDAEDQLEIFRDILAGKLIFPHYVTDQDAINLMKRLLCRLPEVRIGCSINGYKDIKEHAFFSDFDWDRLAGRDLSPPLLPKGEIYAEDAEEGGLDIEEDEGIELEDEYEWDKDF

| SMILES | Activity (Eimeria acervulina [1]) | Activity (Eimeria tenella [2]) | IC50 [3] | Activity (Eimeria tenella [4]) | Activity (Eimeria acervulina [5]) |
| --- | --- | --- | --- | --- | --- |
| C[C@H](Nc1nccc(-c2c(-c3ccc(F)cc3)nc3cc(CN(C)C)ccn23)n1)c1ccccc1 | <50% | >=80% | 0.47 nM |  |  |
| CN(C)Cc1ccn2c(-c3ccnc(N(C)Cc4ccccc4)n3)c(-c3ccc(F)cc3)nc2c1 | 50% | <50% | 3 nM |  |  |
| CN(C)Cc1ccn2c(-c3ccnc(OCc4ccccc4)n3)c(-c3ccc(F)cc3)nc2c1 |  |  | 0.27 nM | <50% | <50% |
| C[C@@H](Nc1nccc(-c2c(-c3ccc(F)cc3)nc3cc(CN(C)C)ccn23)n1)c1ccccc1 | >=80% | >=80% | 0.32 nM |  |  |
